Results published in patent US20150190396A1, “TREATMENT OF TYPE I AND TYPE II DIABETES” (Melior Pharmaceuticals I, Inc., priority 2011, published 2015).
“Also recorded” adds a separate entry of the source.

Key:
Assay type in all cases: in vivo
[1] = test system: streptozocin Type I diabetic male CD-1: ICR mice; test: Streptozocin Type I diabetic mice, insulin tolerance test, blood glucose
Experimental: In the present study, male CD-1: ICR mice (Charles River) approximately 8 weeks of age were used. Streptozocin administration to mice destroys pancreatic β-cells and is used to produce a model of Type I diabetes. In response to loss of pancreatic β-cells, mice become hyperglycemic. These mice are insulin responsive.
Streptozocin administration: Streptozocin administration to mice was conducted by a standard method. Briefly, mice were administered STZ at a dose-level of 70 mg/kg on day 1, 3 and 8. Each administration was preceded by an 18 hour fast. Mice were administered insulin (0.5 U) on days 2 and 9. On day 11, blood glucose levels were measured. Mice with blood glucose levels less than 300 mg/dL were excluded from the study. Mice were randomized to treatment groups.
Mice were tested on the insulin tolerance test on day 14 after the initial STZ administration. Mice were administered insulin (0.35U s.c.) and then 30 minutes later administered Compound 102 (100 mg/kg i.p.).
Blood glucose was measured 5, 15, 30, 60, 90, 120, 180, 240, 360, and 480 minutes after Compound 102 or vehicle administration. Blood was collected from a tail snip and drop of blood measured for glucose levels by glucometer (Accu-Chek Aviva Glucometers; Roche Diagnostics).
Data are expressed as the average±SEM. Data were analyzed by two-way ANOVA followed by post-hoc Bonferroni test. N=6/group

[2] = test system: male DbDb Lep-deficient mice; test: Db/Db Study 1: blood glucose after insulin and/or Compound 102
Experimental: In the present study, male DbDb Lep-deficient mice (Harlan Laboratories) approximately 16 weeks of age were used. [table] Procedure: Mice were divided into 4 groups of 6 mice per group. Blood glucose levels were measured using Accu-Chek Aviva Glucometers (Roche Diagnostics). The times of blood glucose levels were measured up to 72 hours after administration. Glucometers were calibrated prior to each study. […] Glucose levels are reported as mg/dL. In study 1, animals were fasted for 4 hours prior to the administration of test articles and then continuously fasted through to the 8-hour time point. Animals were then provided food ad libitum until 4-hour prior to the 28-hour time point at which point they were fasted until the last blood glucose measurement time point. Data are expressed as the average±SEM. Data were analyzed by two-way ANOVA followed by post-hoc Bonferroni test. N=6/group.

[3] = test system: male DbDb Lep-deficient mice; test: Db/Db Study 2: blood glucose 24-72 hours after insulin and/or Compound 102; conditions: for blood glucose levels compared with vehicle controls: twenty-four hours after administration alone, insulin 1.5 units/kg or Compound 102 100 mg/kg, 18 week old db/db mice
Experimental: In the present study, male DbDb Lep-deficient mice (Harlan Laboratories) approximately 18 weeks of age were used. [table] Procedure: Mice were divided into 4 groups of 6 mice per group. Blood glucose levels were measured using Accu-Chek Aviva Glucometers (Roche Diagnostics). The times of blood glucose levels were measured up to 72 hours after administration. Glucometers were calibrated prior to each study. […] Glucose levels are reported as mg/dL. In study 2, animals were fasted for 4 hours prior to each blood glucose measurement time point and then returned to ad libitum food. Data are expressed as the average±SEM. Data were analyzed by two-way ANOVA followed by post-hoc Bonferroni test. N=6/group Results: A second study was conducted to repeat the findings of Compound 102 effects on insulin action in the 24-72 hours time window and specifically to follow the insulin/Compound 102 combination effect through until it returned to normal levels (i.e., that of vehicle-treated animals). In the second study, there were three differences from the first: 1) mice were 18 weeks of age at the time of study, 2) the insulin dose-level was reduced from 3 to 1.5 U/kg and 3) blood glucose levels were measured out until 72 hours after administration.

## Cc1cccc(Oc2cnc(=O)[nH]c2)c1 [Compound 102]
[1]; Compound 102 100 mg/kg i.p. 30 minutes after insulin, p<0.05, p<0.001 versus insulin alone, FIG. 3, 100 mg/kg
  effect on insulin action / insulin-mediated blood glucose lowering: potentiated the insulin effect; also recorded: potentiated and prolonged the actions of insulin; also recorded: potentiated and prolonged insulin-mediated blood glucose lowering
[1]; Compound 102 100 mg/kg i.p. administered 30 minutes after insulin (0.35)
  insulin-mediated blood glucose reduction to: 157 mg/dL
[1]; Compound 102 100 mg/kg i.p. alone, insulin depleted mice, up to 6 hours, 100 mg/kg
  effect on blood glucose levels: did not affect blood glucose levels at any time point up to 6 hours after administration
[1]; Compound 102 100 mg/kg i.p. in combination with insulin, time after administration
  blood glucose levels still reduced up to: up to 6 hours
[2]; Compound 102 100 mg/kg alone, 100 mg/kg
  effect on blood glucose levels: did not significantly affect blood glucose levels at any time point after administration; also recorded: Small, but statistically insignificant lowering of blood glucose
[3]
  blood glucose levels compared with vehicle controls: not different from vehicle controls

## Insulin [reference compound]
[1]; insulin alone (0.35), 90 minutes after administration, baseline 546 mg/dL
  blood glucose levels: 263 mg/dL
[1]; insulin alone (0.35), after administration
  time at which blood glucose levels returned to baseline levels: 4.5 h
[2]; insulin 3 units/kg alone
  time by which blood glucose levels returned to baseline levels: ≤ 8 h
[2]; insulin 3 units/kg alone, three hours after administration, fasted 16 week old db/db mice, baseline averaged 482 mg/dL
  blood glucose levels: 166.5 mg/dL
[3]; insulin 1.5 units/kg alone, 24-72 hours window (elevation at 24 and 36 hour time points, rebound effect)
  blood glucose in the insulin treated group: does not show blood glucose lowering; also recorded: slightly elevated blood glucose
[3]
  blood glucose levels compared with vehicle controls: not different from vehicle controls
